Test results as given in PubChem BioAssay (NCI).
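Assay format: 96-well plates, 48-hour exposure. At the TGI there is no net growth.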

How the values were obtained:
Test in all cases: growth of human tumour cells (NCI), 48 h
OVCAR-5 ovarian = test system: OVCAR-5 ovarian
MCF7 breast = test system: MCF7 breast
MDA-MB-231 breast = test system: MDA-MB-231 breast
NCI-H23 lung = test system: NCI-H23 lung
SK-MEL-2 melanoma = test system: SK-MEL-2 melanoma
NCI-H522 lung = test system: NCI-H522 lung
LOX IMVI melanoma = test system: LOX IMVI melanoma
SNB-75 CNS = test system: SNB-75 CNS
M14 melanoma = test system: M14 melanoma
SF-268 CNS = test system: SF-268 CNS
SN12C renal = test system: SN12C renal
MALME-3M melanoma = test system: MALME-3M melanoma
MOLT-4 leukemia = test system: MOLT-4 leukemia
HCT-116 colon = test system: HCT-116 colon
CCRF-CEM leukemia = test system: CCRF-CEM leukemia
HCC-2998 colon = test system: HCC-2998 colon
HOP-62 NSCLC = test system: HOP-62 NSCLC
UO-31 renal = test system: UO-31 renal
MDA-MB-435 = test system: MDA-MB-435
OVCAR-8 ovarian = test system: OVCAR-8 ovarian
EKVX NSCLC = test system: EKVX NSCLC
DU-145 prostate = test system: DU-145 prostate
NCI-H460 lung = test system: NCI-H460 lung
UACC-62 melanoma = test system: UACC-62 melanoma
TK-10 renal = test system: TK-10 renal
PC-3 prostate = test system: PC-3 prostate
SR leukemia = test system: SR leukemia
UACC-257 melanoma = test system: UACC-257 melanoma
OVCAR-4 ovarian = test system: OVCAR-4 ovarian
SK-MEL-5 melanoma = test system: SK-MEL-5 melanoma
K-562 leukemia = test system: K-562 leukemia
NCI-H226 lung = test system: NCI-H226 lung
U251 CNS = test system: U251 CNS
CAKI-1 renal = test system: CAKI-1 renal
SK-OV-3 ovarian = test system: SK-OV-3 ovarian
T-47D breast = test system: T-47D breast
HCT-15 colon = test system: HCT-15 colon
SK-MEL-28 melanoma = test system: SK-MEL-28 melanoma
MDA-N = test system: MDA-N
BT-549 breast = test system: BT-549 breast
NCI/ADR-RES ovarian = test system: NCI/ADR-RES ovarian
ACHN renal = test system: ACHN renal
SF-539 CNS = test system: SF-539 CNS
786-0 renal = test system: 786-0 renal
A549 NSCLC = test system: A549 NSCLC
HT29 colon = test system: HT29 colon
A498 renal = test system: A498 renal
IGROV1 ovarian = test system: IGROV1 ovarian
RPMI-8226 leukemia = test system: RPMI-8226 leukemia
SNB-19 CNS = test system: SNB-19 CNS
SW-620 colon = test system: SW-620 colon
SF-295 CNS = test system: SF-295 CNS
RXF 393 renal = test system: RXF 393 renal
KM12 colon = test system: KM12 colon
COLO 205 colon = test system: COLO 205 colon
HOP-92 NSCLC = test system: HOP-92 NSCLC
OVCAR-3 ovarian = test system: OVCAR-3 ovarian
HS 578T breast = test system: HS 578T breast

SMILES: C=C(C)[C@@H]1C[C@H]2O[C@](O)(C(=C)CC(=O)/C=C(/C)C[C@@H]3OC(=O)[C@]24O[C@@H]34)[C@H]1O
- TGI (OVCAR-5 ovarian): > 100 µM
- TGI (MCF7 breast): > 100 µM
- TGI (MDA-MB-231 breast): > 100 µM
- TGI (NCI-H23 lung): > 100 µM
- TGI (SK-MEL-2 melanoma): > 100 µM
- TGI (NCI-H522 lung): > 100 µM
- TGI (LOX IMVI melanoma): > 100 µM
- TGI (SNB-75 CNS): > 100 µM
- TGI (M14 melanoma): > 100 µM
- TGI (SF-268 CNS): > 100 µM
- TGI (SN12C renal): > 100 µM
- TGI (MALME-3M melanoma): > 100 µM
- TGI (MOLT-4 leukemia): > 100 µM
- TGI (HCT-116 colon): > 100 µM
- TGI (CCRF-CEM leukemia): > 100 µM
- TGI (HCC-2998 colon): > 100 µM
- TGI (HOP-62 NSCLC): > 100 µM
- TGI (UO-31 renal): > 100 µM
- TGI (MDA-MB-435): > 100 µM
- TGI (OVCAR-8 ovarian): > 100 µM
- TGI (EKVX NSCLC): > 100 µM
- TGI (DU-145 prostate): > 100 µM
- TGI (NCI-H460 lung): > 100 µM
- TGI (UACC-62 melanoma): > 100 µM
- TGI (TK-10 renal): > 100 µM
- TGI (PC-3 prostate): > 100 µM
- TGI (SR leukemia): > 100 µM
- TGI (UACC-257 melanoma): > 100 µM
- TGI (OVCAR-4 ovarian): > 100 µM
- TGI (SK-MEL-5 melanoma): > 100 µM
- TGI (K-562 leukemia): > 100 µM
- TGI (NCI-H226 lung): > 100 µM
- TGI (U251 CNS): > 100 µM
- TGI (CAKI-1 renal): > 100 µM
- TGI (SK-OV-3 ovarian): > 100 µM
- TGI (T-47D breast): > 100 µM
- TGI (HCT-15 colon): > 100 µM
- TGI (SK-MEL-28 melanoma): > 100 µM
- TGI (MDA-N): > 100 µM
- TGI (BT-549 breast): > 100 µM
- TGI (NCI/ADR-RES ovarian): > 100 µM
- TGI (ACHN renal): > 100 µM
- TGI (SF-539 CNS): > 100 µM
- TGI (786-0 renal): > 100 µM
- TGI (A549 NSCLC): > 100 µM
- TGI (HT29 colon): > 100 µM
- TGI (A498 renal): > 100 µM
- TGI (IGROV1 ovarian): > 100 µM
- TGI (RPMI-8226 leukemia): > 100 µM
- TGI (SNB-19 CNS): > 100 µM
- TGI (SW-620 colon): > 100 µM
- TGI (SF-295 CNS): > 100 µM
- TGI (RXF 393 renal): > 100 µM
- TGI (KM12 colon): > 100 µM
- TGI (COLO 205 colon): > 100 µM

SMILES: CCC[C@H](O)[C@@H](CNc1cc(NC(C)=O)nc(NC(C)=O)n1)N(Cc1ccccc1)Cc1ccccc1
- TGI (OVCAR-5 ovarian): > 100 µM
- TGI (MCF7 breast): 25.8 µM
- TGI (MDA-MB-231 breast): > 100 µM
- TGI (NCI-H23 lung): 58.4 µM
- TGI (SK-MEL-2 melanoma): > 100 µM
- TGI (NCI-H522 lung): 27.2 µM
- TGI (LOX IMVI melanoma): > 100 µM
- TGI (SNB-75 CNS): 34.8 µM
- TGI (M14 melanoma): > 100 µM
- TGI (SN12C renal): > 100 µM
- TGI (MALME-3M melanoma): > 100 µM
- TGI (MOLT-4 leukemia): > 100 µM
- TGI (HCT-116 colon): 54.1 µM
- TGI (HCC-2998 colon): > 100 µM
- TGI (HOP-62 NSCLC): 36.2 µM
- TGI (UO-31 renal): 48.6 µM
- TGI (MDA-MB-435): > 100 µM
- TGI (OVCAR-8 ovarian): 35.1 µM
- TGI (EKVX NSCLC): 45.3 µM
- TGI (DU-145 prostate): > 100 µM
- TGI (NCI-H460 lung): > 100 µM
- TGI (HOP-92 NSCLC): > 100 µM
- TGI (UACC-62 melanoma): 57 µM
- TGI (TK-10 renal): 45.1 µM
- TGI (OVCAR-3 ovarian): 55.6 µM
- TGI (PC-3 prostate): 33.5 µM
- TGI (SR leukemia): > 100 µM
- TGI (UACC-257 melanoma): > 100 µM
- TGI (OVCAR-4 ovarian): > 100 µM
- TGI (SK-MEL-5 melanoma): > 100 µM
- TGI (K-562 leukemia): > 100 µM
- TGI (NCI-H226 lung): 33.1 µM
- TGI (U251 CNS): > 100 µM
- TGI (CAKI-1 renal): 38.5 µM
- TGI (SK-OV-3 ovarian): 63.4 µM
- TGI (HCT-15 colon): > 100 µM
- TGI (SK-MEL-28 melanoma): > 100 µM
- TGI (MDA-N): > 100 µM
- TGI (BT-549 breast): 35.9 µM
- TGI (NCI/ADR-RES ovarian): 73.3 µM
- TGI (ACHN renal): 56.8 µM
- TGI (786-0 renal): 38.6 µM
- TGI (A549 NSCLC): 72.1 µM
- TGI (A498 renal): > 100 µM
- TGI (HS 578T breast): > 100 µM
- TGI (IGROV1 ovarian): 50.9 µM
- TGI (RPMI-8226 leukemia): > 100 µM
- TGI (SNB-19 CNS): > 100 µM
- TGI (SW-620 colon): > 100 µM
- TGI (SF-295 CNS): 25.5 µM
- TGI (KM12 colon): 39.1 µM
- TGI (COLO 205 colon): > 100 µM
